Where “and” joins values, the source holds several entries; their conditions need not be identical. Identical values can stand only once. Entries after “also recorded” stand apart in the source; their conditions may differ.
Key:
CYP3A4 [1] = target: T1, CYP3A4 (Homo sapiens, UniProt P08684); assay: in vitro; format: binding
T1 construct: made in house
Procedure: (Adapted from DeVore, et al.)[25] Ligand interaction with the heme iron was evaluated by titrating ligands into a cuvette containing purified CYP17A1[14], CYP2D6 L230D/L231R[26], or CYP3A4[27] and measured using a UV-visible scanning spectrophotometer. Enzyme was diluted to 0.2 µM in 100 mM potassium phosphate buffer (pH 7.4), 20% glycerol, and 100 mM sodium chloride and divided equally between two 5 mL cuvettes to evaluate high-affinity binding. Ligands dissolved in dimethylsulfoxide (DMSO) were added to the sample cuvette and an equal volume of DMSO to the reference cuvette. Difference spectra were recorded from 300 to 500 nm after equilibration of enzyme and ligand. Binding to the enzyme was measured as the difference in maximal and minimal absorbance: A387—A419 for pregnanolone and 3-formyl pregnanolone, and A435—A393 for compound 1 with CYP17A1; A434—A414 for compound 1 with CYP3A4 and CYP2D6. The dissociation constant and maximum spectral change were calculated using tight-binding or quadratic equation. All data fitting was accomplished using GraphPad Prism 9. Details of fitting are provided in Supplementary Information, and numerical data used to generate graphs in Figs. 2, 4 and 5 are provided in Supplementary Data 3 in Excel format.

CYP17A1 [2] = target: T2, CYP17A1 (Homo sapiens, UniProt P05093); assay: biochemical
T2 construct: made in house
T2 sequence (P05093 24-508 limits assumed): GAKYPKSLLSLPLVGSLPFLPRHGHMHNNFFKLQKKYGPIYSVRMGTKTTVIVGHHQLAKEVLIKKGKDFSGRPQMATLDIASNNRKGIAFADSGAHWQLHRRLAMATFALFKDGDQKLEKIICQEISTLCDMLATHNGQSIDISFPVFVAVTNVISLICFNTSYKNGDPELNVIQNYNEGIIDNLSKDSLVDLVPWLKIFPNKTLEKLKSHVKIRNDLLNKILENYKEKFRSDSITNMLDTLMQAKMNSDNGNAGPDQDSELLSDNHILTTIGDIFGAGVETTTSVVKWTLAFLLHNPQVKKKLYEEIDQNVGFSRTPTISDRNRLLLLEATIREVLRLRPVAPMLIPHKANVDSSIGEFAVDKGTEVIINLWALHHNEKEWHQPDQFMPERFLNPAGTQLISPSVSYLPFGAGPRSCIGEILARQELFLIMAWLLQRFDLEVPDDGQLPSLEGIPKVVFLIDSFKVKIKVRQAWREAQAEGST
Procedure: Metabolic activity of CYP17A1 was evaluated by measuring 17α-hydroxylation of progesterone as detected by HPLC with UV detection at 240 nm. A 1:4 ratio of CYP17A1 to recombinant NADPH-cytochrome P450 reductase was mixed and incubated on ice for 20 min. […] Reaction vials were warmed to 37 °C for 3 min, then catalysis was initiated by adding NADPH to a final concentration of 1 mM. After 10 min, metabolism was quenched by adding 300 µL of 20% trichloroacetic acid and placed on ice. The reaction vials were centrifuged to pellet the precipitated protein, then the supernatant was injected onto a C18 column for HPLC identification of product. Metabolite elution was normalized to β-estradiol as an internal standard. A standard curve of known product concentrations was used to convert normalized area under curve to amount of product produced. A four-parameter variable-slope equation was used to fit the data and calculate IC50 values for inhibitors using GraphPad Prism 9.
195 Metabolic activity of CYP17A1 was evaluated by measuring 17α-hydroxylation of progesterone as detected
196 by HPLC with UV detection at 240 nm. A 1:4 ratio of CYP17A1 to recombinant NADPH-cytochrome P450
197 reductase was mixed and incubated on ice for 20 minutes. This mixture was added to buffer (50 mM Tris, pH
199 Reaction vials were warmed to 37 °C for three minutes, then catalysis was initiated by adding NADPH to a
200 final concentration of 1 mM. After 10 minutes, metabolism was quenched by adding 300 µL of 20%
201 trichloroacetic acid and placed on ice. The reaction vials were centrifuged to pellet the precipitated protein,
202 then the supernatant was injected onto a C18 column (Phenomenex, Luna, 50 x 4.6 mm) for HPLC. The 30-
203 minute HPLC method ran at 0.8 mL/min and started with a mobile phase of 60% acetonitrile, 40% water with
204 0.2% acetic acid for five minutes, in creased to 80% acetonitrile over 10 minutes, held at 80% acetonitrile for
205 five minutes, 100% acetonitrile for five minutes, then returned to 60% acetonitrile to prepare for the next
206 sample. Metabolite elution was normalized to β-estradiol as an internal standard. A standard curve of known
207 product concentrations was used to convert normalized area under curve to amount of product produced. A
208 four-parameter variable-slope equation (Y=Ymin + (Ymax-Ymin)/(1+(IC50/X)^(Hill Slope))) was used to fit the data
209 and calculate IC50 values for inhibitors using GraphPad Prism 9.

CYP2D6 = target: T3, CYP2D6 (Homo sapiens, UniProt P10635, L230D/L231R); assay: Reduction and reoxidation assay
T3 construct: made in house
T3 sequence (P10635 whole entry L230D/L231R): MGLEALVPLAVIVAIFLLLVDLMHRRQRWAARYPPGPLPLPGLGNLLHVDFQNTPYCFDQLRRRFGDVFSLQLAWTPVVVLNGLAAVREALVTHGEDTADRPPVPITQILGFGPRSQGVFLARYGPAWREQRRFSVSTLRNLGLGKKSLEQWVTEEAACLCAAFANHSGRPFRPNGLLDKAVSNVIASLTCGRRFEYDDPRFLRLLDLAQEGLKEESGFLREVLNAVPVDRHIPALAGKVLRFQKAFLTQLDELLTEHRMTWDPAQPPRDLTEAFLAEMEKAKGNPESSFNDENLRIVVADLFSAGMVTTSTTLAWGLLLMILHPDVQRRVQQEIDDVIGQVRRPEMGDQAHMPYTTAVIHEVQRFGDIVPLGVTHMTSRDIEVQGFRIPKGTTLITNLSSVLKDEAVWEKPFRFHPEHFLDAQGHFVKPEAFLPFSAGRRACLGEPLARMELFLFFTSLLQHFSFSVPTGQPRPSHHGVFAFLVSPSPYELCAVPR
Procedure: (§1) Reduction of the 1-bound P450 complex was observed by taking a baseline absorbance reading from 400 to 500 nm using a UV-visible scanning spectrophotometer, of a 1 cm quartz cuvette containing 1 µM P450, with compound 1 at a saturating concentration (i.e., ≥ concentration needed to reach ΔAmax), in binding assay buffer (100 mM potassium phosphate buffer (pH 7.4), 20% glycerol, and 100 mM sodium chloride). A small quantity of sodium dithionite (spatula tip-full) was then added to the cuvette, and the spectra were recorded periodically over time to observe the formation of peaks indicating the reduction (~426 and 456 nm) and subsequent reoxidation (~435 nm) of the complex. The total time course for Fig. 6B was 103 min and 37 s. Numerical data used to generate graphs in Fig. 6 are provided in Supplementary Data 3 in Excel format.
(§2) 185 S2) Ligand binding and inhibition assays
(§3) 186 Reduction and reoxidation assays. Reduction of the isonitrile-bound P450 complex was observed by taking
(§4) 187 a baseline absorbance reading from 400 to 500 nm using a UV-visible scanning spectrophotometer, of a 1cm
(§5) 188 quartz cuvette containing 1 µM P450, with the selected isonitrile compound at a saturating concentration
(§6) 189 (i.e., ≥ concentration needed to reach ΔAmax), in the same buffer used for binding assays (100 mM potassium
(§7) 190 phosphate buffer (pH 7.4), 20% glycerol, and 100 mM sodium chloride). A small quantity of sodium dithionite
(§8) 191 (spatula tip-full) was then added to the cuvette, and the spectra were recorded periodically over time to
(§9) 192 observe the formation of peaks indicating the reduction (~426 and 456 nm) and subsequent reoxidation
(§10) 193 (~435 nm) of the complex. The total time course for Figure 6B was 103 minutes and 37 seconds. […]
(§11) 217 initiated by adding NADPH to a final concentration of 1 mM. After 20 minutes, metabolism was quenched
(§12) 218 by adding 50 µL acetonitrile and placed on ice. The reaction vials were centrifuged at 5000 xg for 5 minutes
(§13) 219 to pellet the precipitated protein, then the supernatant was injected onto a C18 column (Phenomenex, Luna,
(§14) 220 50 x 4.6 mm) for HPLC. Separation on HPLC was obtained using a mobile phase of 45%/55% water/methanol
(§15) 221 for 40 minutes. A standard curve of known product concentrations was used to convert the area under the
(§16) 222 curve to the amount of product produced.
(§17) 224 S3) Crystallization of 1-CYP17A1 complex and X-ray diffraction
(§18) 225 Protein Crystallization and Structure Determination. CYP17A1 was saturated with 3β-formyl-5α
(§19) 226 pregnanolone-20(R)-isonitrile (verified by 430 nm Soret peak) and prepared for crystallization via hanging

CYP17A1 [3] = target: T4, CYP17A1 (Homo sapiens, UniProt P05093); assay: Reduction and reoxidation assay
T4 construct: made in house
T4 sequence (P05093 1-508): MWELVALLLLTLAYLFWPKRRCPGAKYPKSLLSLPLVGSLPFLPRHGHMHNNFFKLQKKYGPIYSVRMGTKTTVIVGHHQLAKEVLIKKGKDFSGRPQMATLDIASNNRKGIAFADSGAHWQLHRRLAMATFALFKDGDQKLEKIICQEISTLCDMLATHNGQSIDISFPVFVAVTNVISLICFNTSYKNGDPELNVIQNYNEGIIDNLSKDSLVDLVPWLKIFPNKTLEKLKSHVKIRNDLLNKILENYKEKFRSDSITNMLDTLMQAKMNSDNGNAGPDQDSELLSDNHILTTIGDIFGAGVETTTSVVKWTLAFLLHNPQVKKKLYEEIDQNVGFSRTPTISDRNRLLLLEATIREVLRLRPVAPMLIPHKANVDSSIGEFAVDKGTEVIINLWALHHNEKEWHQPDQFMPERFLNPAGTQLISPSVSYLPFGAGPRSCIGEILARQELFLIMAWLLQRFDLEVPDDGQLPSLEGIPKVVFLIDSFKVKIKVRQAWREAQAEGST
Procedure: as §1, §2, §3, §4, §5, §6, §7, §8, §9, §10, §11, §12, §13, §14, §15, §16, §17, §18, §19

CYP3A4 [4] = target: T1, CYP3A4
Procedure: as §1, §2, §3, §4, §5, §6, §7, §8, §9, §10, §11, §12, §13, §14, §15, §16, §17, §18, §19

[5] = CYP2D6/20-(R)-1 complex reduced by sodium dithionite
[6] = CYP17A1/20-(R)-1 complex reduced by sodium dithionite
[7] = CYP3A4/20-(R)-1 complex reduced by sodium dithionite

T1 sequence (P08684 whole entry): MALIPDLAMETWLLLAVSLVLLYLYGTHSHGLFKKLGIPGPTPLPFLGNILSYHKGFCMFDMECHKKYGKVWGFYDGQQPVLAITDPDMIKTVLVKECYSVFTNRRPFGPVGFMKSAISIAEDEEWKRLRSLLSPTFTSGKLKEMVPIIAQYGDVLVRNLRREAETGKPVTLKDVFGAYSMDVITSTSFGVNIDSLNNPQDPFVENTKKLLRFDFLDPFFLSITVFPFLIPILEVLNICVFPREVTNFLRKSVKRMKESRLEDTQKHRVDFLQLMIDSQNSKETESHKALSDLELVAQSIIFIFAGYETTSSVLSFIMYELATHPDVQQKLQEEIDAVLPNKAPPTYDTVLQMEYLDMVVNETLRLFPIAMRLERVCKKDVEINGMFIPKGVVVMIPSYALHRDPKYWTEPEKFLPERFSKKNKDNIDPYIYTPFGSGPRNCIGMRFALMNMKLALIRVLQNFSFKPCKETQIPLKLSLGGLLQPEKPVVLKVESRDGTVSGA

[C-]#[N+][C@H](C)[C@H]1CC[C@H]2[C@@H]3CC[C@H]4C[C@@H](OC=O)CC[C@]4(C)[C@H]3CC[C@]12C [Compound 1, 3β-formyl-5α-pregnanolone-(R)-20-isonitrile]
contribution of Fe—C dative bond to the free energy of complexation (CYP3A4 [1]; CYP3A4, from Kd of 20-(R)-1 versus parent steroid): ~ 6 kJ/mol | dissociation constant for CYP3A4 relative to CYP17A1 (CYP3A4 [1]; CYP3A4 versus CYP17A1): more than a billion times higher | Kd (CYP3A4 [1]; human, pH 7.4, dissociation constant (Kd), protein 200 nM, 5 cm cuvette, tight-binding or quadratic equation, Fig. 4B: n = 3, 95% CI 120–215 nM): 167 nM | Soret shift on titration indicating Fe—CN—R bond formation (CYP3A4 [1]; titration of CYP3A4): 435 nm | difference spectrum peak indicative of Fe—CN bond formation (CYP3A4 [1]; titration of CYP3A4): 435 nm | IC50 (CYP17A1 [2]): 1300 nM | slope of the inhibition curve (CYP17A1 [2]; CYP17A1 progesterone hydroxylation): 2.4 | Soret peak after reoxidation in air (CYP2D6; CYP2D6/20-(R)-1): ~ 435 nm and 437 nm | reoxidation of reduced complex in air (CYP2D6; CYP2D6/20-(R)-1, same time period): re-oxidizes in air | split Soret after reduction, higher-wavelength maximum (CYP2D6; [5]): 455 nm | split Soret after reduction, lower-wavelength maximum (CYP2D6; [5]): 431 nm | reoxidation of reduced complex in air (CYP17A1 [3]; CYP17A1/20-(R)-1, in air over 105 min): largely resistant to re-oxidation; also recorded: little reoxidation | split Soret after reduction, higher-wavelength maximum (CYP17A1 [3]; [6]): 454 nm | split Soret after reduction, lower-wavelength maximum (CYP17A1 [3]; [6]): 430 nm and 429.5 nm | Soret peak after reoxidation in air (CYP3A4 [4]; CYP3A4/20-(R)-1, 103 min): ~ 435 nm and 437.5 nm | reoxidation of reduced complex in air (CYP3A4 [4]; CYP3A4/20-(R)-1, 103 min): slowly re-oxidizes | split Soret after reduction, higher-wavelength maximum (CYP3A4 [4]; [7]): 454 nm | split Soret after reduction, lower-wavelength maximum (CYP3A4 [4]; [7]): 428 nm

Reference: PMC10475101, “Selective steroidogenic cytochrome P450 haem iron ligation by steroid-derived isonitriles” (Communications Chemistry, 2023)
